Measured values reported in PMC8368196, “Phase 1 study of the ATR inhibitor berzosertib (formerly M6620, VX-970) combined with gemcitabine ± cisplatin in patients with advanced solid tumours” (British Journal of Cancer, 2021).
Where two headings read alike, the source gives them in different places.

How the values were obtained:
[1] = Berzosertib plasma and urine pharmacokinetics (LC-MS/MS, non-compartmental analysis); type: in vivo, human; conditions: for AUC(0-inf) / Cmax / clearance / Vd / half-life: iv, plasma; for Vd: read-out: Vss
Description: PK assessments for berzosertib were conducted during the monotherapy lead-in and during cycles 1 and 2. Blood samples for berzosertib plasma PK assessments were collected following the single-agent dose, from day 1 of combination dosing (pre-dose, 0.5 h before the end of infusion, at end of infusion and 0.5, 1, 2, 3, 7, 23, 47 and 71 h after the end of infusion), on day 9 (pre-dose) and cycle 2 day 2 (pre-dose and 2 h after the end of infusion). Cumulative urine samples were collected for PK assessments on days 2 and 3 of cycle 1 (pre-dose—3, 3–7, 7–11 and 11–23 h). Berzosertib concentrations were quantified using a validated liquid chromatography tandem-mass spectrometry method and plasma PK was characterised by non-compartmental analyses using Phoenix WinNonlin 6.4 (Certara USA Inc, Princeton, NJ, USA).
Safety data, baseline patient demographics and disease characteristics were summarised descriptively for the combination safety set—which included all enrolled patients who received at least one dose of study drug. PK data were collected in the PK analysis set, defined as all enrolled patients who received at least one dose of berzosertib and provided at least one measurable post-dose sample. […] Standard non-compartmental methods were used to determine PK parameters.

[2] = test system: patients with advanced solid tumours
Description: Part A was a 3 + 3 dose-escalation Phase 1 study evaluating the safety, tolerability, pharmacokinetics (PK) and preliminary efficacy of berzosertib in combination with gemcitabine with or without cisplatin (NCT02157792) (Fig. 1). Patients were enrolled in cohorts of three, with subsequent cohort expansion and dose-escalation decisions based on safety review, available PK data and observations of dose-limiting toxicities (DLTs) until the end of treatment cycle 1.
A 7–14-day lead-in period with single ascending doses of intravenous (i.v.) berzosertib was planned to assess the safety of berzosertib monotherapy; the requirement for the lead-in period was removed after review of safety data both during the study and from a concurrent study of berzosertib monotherapy.[17] […] Based on preclinical studies, a starting dose of 18 mg/m^2 and a dosing regimen of i.v. berzosertib on days 2 and 9, ~24 ± 4 h after dosing with gemcitabine ± cisplatin, was selected.[17] […] Patients received i.v. gemcitabine on days 1 and 8, with or without i.v. cisplatin on day 1. […]
Treatment-emergent adverse events (TEAEs) and DLTs were reported using National Cancer Institute (NCI) Common Terminology Criteria for Adverse Events (CTCAE) version 4.0. […] All AEs of any grade were recorded and followed up until resolution. Safety was evaluated throughout treatment and was used to inform dose-escalation decisions. […]

ATR = test system: ATR; design: method as in PMID 23222511, PMID 25010037; conditions: inhibitor of ATR; cited from earlier work
[3] = human, 18 mg/m2, berzosertib 18 mg/m^2 i.v., lead-in period, berzosertib alone, mean (% CV), n = 3
[4] = human, 36 mg/m2, berzosertib 36 mg/m^2 i.v., lead-in period, berzosertib alone, mean (% CV), n = 3
[5] = human, 60 mg/m2, berzosertib 60 mg/m^2 i.v., lead-in period, berzosertib alone, mean (% CV), n = 4
[6] = human, 72 mg/m2, berzosertib 72 mg/m^2 i.v., lead-in period, berzosertib alone, mean (% CV), n = 7
[7] = human, 90 mg/m2, berzosertib 90 mg/m^2 i.v., lead-in period, berzosertib alone, mean (% CV), n = 6
[8] = human, 140 mg/m2, berzosertib 140 mg/m^2 i.v., lead-in period, berzosertib alone, mean (% CV), n = 5
[9] = human, 210 mg/m2, berzosertib 210 mg/m^2 i.v., lead-in period, berzosertib alone, mean (% CV), n = 2

## CNCc1ccc(-c2cc(-c3nc(-c4ccc(S(=O)(=O)C(C)C)cc4)cnc3N)on2)cc1 [Berzosertib]
[1]; from 18 to 210 mg/m^2
  Dose proportionality of exposure: approximately dose-proportional
[1]; human, intravenous, part A, urine, read-out: Mean renal clearance (converted)
  CL renal: 60 mL/min
[1]; [3]
  AUC(0-inf): 351 ng·h/mL
  Cmax: 72 ng/mL
  clearance: 1640 mL/min
  Vd: 1600 L
[1]; human, 18 mg/m2, berzosertib 18 mg/m^2 i.v., lead-in period, berzosertib alone, mean (% CV), n = 3, read-out: t½ (converted)
  half-life: 14 h
[1]; [4]
  AUC(0-inf): 913 ng·h/mL
  Cmax: 176 ng/mL
  clearance: 1500 mL/min
  Vd: 1280 L
[1]; human, 36 mg/m2, berzosertib 36 mg/m^2 i.v., lead-in period, berzosertib alone, mean (% CV), n = 3, read-out: t½ (converted)
  half-life: 14.2 h
[1]; [5]
  AUC(0-inf): 1700 ng·h/mL
  Cmax: 345 ng/mL
  clearance: 1300 mL/min
  Vd: 1280 L
[1]; human, 60 mg/m2, berzosertib 60 mg/m^2 i.v., lead-in period, berzosertib alone, mean (% CV), n = 4, read-out: t½ (converted)
  half-life: 15 h
[1]; [6]
  AUC(0-inf): 2280 ng·h/mL
  Cmax: 536 ng/mL
  clearance: 1040 mL/min
  Vd: 1040 L
[1]; human, 72 mg/m2, berzosertib 72 mg/m^2 i.v., lead-in period, berzosertib alone, mean (% CV), n = 7, read-out: t½ (converted)
  half-life: 15.2 h
[1]; [7]
  AUC(0-inf): 2370 ng·h/mL
  Cmax: 451 ng/mL
  clearance: 1240 mL/min
  Vd: 1320 L
[1]; human, 90 mg/m2, berzosertib 90 mg/m^2 i.v., lead-in period, berzosertib alone, mean (% CV), n = 6, read-out: t½ (converted)
  half-life: 17.2 h
[1]; [8]
  AUC(0-inf): 4550 ng·h/mL
  Cmax: 817 ng/mL
  clearance: 1010 mL/min
  Vd: 1150 L
[1]; human, 140 mg/m2, berzosertib 140 mg/m^2 i.v., lead-in period, berzosertib alone, mean (% CV), n = 5, read-out: t½ (converted)
  half-life: 17 h
[1]; [9]
  AUC(0-inf): 6130 ng·h/mL
  Cmax: 808 ng/mL
  clearance: 1270 mL/min
  Vd: 1550 L
[1]; human, 210 mg/m2, berzosertib 210 mg/m^2 i.v., lead-in period, berzosertib alone, mean (% CV), n = 2, read-out: t½ (converted)
  half-life: 16.8 h
[1]; human, i.v., 18–210 mg/m^2, read-out: Apparent terminal half-life (converted)
  half-life: ~17 h
[1]; in vivo
  PK when administered ~24 h after gemcitabine, with or without cisplatin, versus berzosertib alone: not significantly different
[1]; part A
  Mean percentage excreted in the urine: 5%
[1]; weekly administration
  Accumulation: not observed
[2]; in vivo
  Trends in laboratory results (serum chemistry, haematology, urinalysis), vital signs or ECG parameters attributable to treatment: no clinically meaningful trends
[2]; on second infusion of berzosertib, no clear relationship to dose
  Patients with acute hypersensitivity: < 5%
ATR
  IC50: 0.019 µM
